Results reported in a melting point compilation (Tetko et al.; mined from patent text by program, amines drawn as free bases though some values may be those of a salt).

SMILES	melting point [°C]
Cc1cc(SCc2sc(-c3ccc(C(F)(F)F)c(F)c3)nc2C)ccc1OCC(=O)O	< 50
CCCCCCCCCCOC(=O)c1cc(C(=O)OCCCCCCCCCC)cc([N+](=O)[O-])c1	48 to 50
CCNC(=O)/C=C(C)/C=C/C(F)=C(C)/C=C/c1c(C)sc(C)c1C	167 to 171
C=CCc1c(N)ccc2c(=O)cc(C(=O)OCC)oc12	142 to 143
O=C1CCCCN1[C@@H]1c2cc(C(F)(F)C(F)(F)C(F)(F)F)ccc2OC(CF)(CF)[C@H]1O (relative stereo)	156 to 157
CS(=O)(=O)c1ccc(-c2[nH]nc(C(=O)CCCO[N+](=O)[O-])c2C2CCCCC2)cc1	122 to 124
Clc1ccc2c(NCCN3CCCCC3)ccnc2c1	148 to 151
COc1c(C)c(C)c(OC)c(C(O)CN)c1C (centres undefined)	110 to 112
Cn1c(=N)sc2ccccc21	122
CSc1ccc(C(=O)O)c(C(F)(F)F)c1F	108 to 109
N#Cc1c(O)c2sccc2[nH]c1=O	> 300
CC(=O)OC12Oc3cc(C(C)C)ccc3C1(OC(C)=O)C(=O)c1c(N)cccc12 (centres undefined)	201 to 203
CCCCCCCCOc1ccc(-c2ncc(Br)cn2)c(F)c1F	74.6
Cc1c(CO)ncnc1N1CCOCC1	66 to 68
C#CCNC(=O)C(C#N)=C1CC(C)(C)c2cc(OC)c(OC)cc21	202 to 205
NC1=CC(=O)C(N)=C(CCCCCC2=C(N)C(=O)C=C(N)C2=O)C1=O	> 250
Cc1cnc(SCc2cc3c(cc2O)CCCO3)n1C	139 to 140
CC(=O)OCC1OC(n2c(=O)sc3cnc(N)nc32)C(OC(C)=O)C1OC(C)=O (centres undefined)	121 to 123
CC(C)c1cccc(NC(=O)[C@H](Br)C(C)C)c1O	108 to 109
C=CCN(CC=C)c1ccc(NCCO)cc1[N+](=O)[O-]	166 to 170
CCCCC1CCCc2oc(C(=N)N)cc21 (centres undefined)	243 to 245
CN(C(=O)Cc1ccc2oc(=O)[nH]c2c1)[C@H](CN1CC[C@H](O)C1)c1ccccc1	207 to 208

SMILES	melting point [°C]
CS(=O)(=O)N1CCCCc2nc(-c3ccncc3)sc21	193 to 194
COc1cc(-n2nc(C)n(C(F)F)c2=O)c(F)cc1Cl	86 to 88
CS(=O)(=O)c1cc2[nH]c(=O)c(=O)n(C3CCCCC3)c2cc1-n1cccc1	> 280
CC(C)C(=O)Oc1ccc2c(c1)OCN(CCO[N+](=O)[O-])C2=O	70 to 71
C=C(C)c1c(C)oc2c(NC(=O)c3c(Cl)cccc3Cl)cccc12	147 to 148
Nc1nc2[nH]c(CCCc3cc(C(=O)N[C@@H](CCC(=O)O)C(=O)O)cs3)cc2c(=O)[nH]1	191 to 192
CC1(C2N=NC(=O)O2)CC1 (centres undefined)	68 to 70
Nc1nc(Cl)cc(NCC2CC2(Cl)Cl)n1 (centres undefined)	78 to 79
O=C(O)COc1ccc2c(c1)OCO2	149 to 151
Brc1ccc2c(CCN3CCCCC3)c(-c3ccccc3)[nH]c2c1	> 230
CC(C)(C)C(Cc1ccccc1)C(=O)n1ccnc1 (centres undefined)	90 to 91
O=C(O)C1=Cc2cc([N+](=O)[O-])ccc2OC1C(F)(F)F (centres undefined)	187 to 189
CC(C)(C)OC(=O)Nc1ccc2nc(N3CCOCC3)nn2c1	166
O=C(NC(=O)c1c(F)cccc1F)Nc1cncc(C(F)(F)F)c1	233 to 235
CN(CCOc1ccc(OC(F)(F)F)cc1)CC1(C)Cn2cc([N+](=O)[O-])nc2O1 (centres undefined)	86.4 to 89.2
Cc1cc(N(C)C)ccc1Br	47 to 49
O=C(O)CCCCCCCCCCCCO	77 to 78
COc1c(SCc2ccco2)ccnc1CO	56 to 58
CN1CCN(CCCNc2ccc(-n3cc(C(F)(F)F)ccc3=O)c(Cl)c2)CC1	129 to 132
Cc1cc2c(cc1S(=O)(=O)c1cc(Cl)cc(Cl)c1)OC(C(=O)O)O2 (centres undefined)	210 to 214
Cc1nc(Cn2c(=O)sc3cc(F)c(N4C(=O)C5=C(CCCC5)C4=O)cc32)no1	198 to 199

Second part, the compound after the results:

melting point [°C]	SMILES
185 to 186	Cc1cc(COc2ccc(F)c(C(N)=O)c2F)ccn1
159 to 160	COCc1c(C(=O)c2ccccc2)ncc2[nH]c3ccc(Oc4nccc5ccccc45)cc3c12
91 to 93	COc1ccccc1NC(=S)c1ccc(C)cc1
146 to 148	CNS(=O)(=O)CCc1ccc2[nH]cc(CCN=Cc3ccccc3)c2c1
190 to 191	CCOC(=O)c1c(S(=O)c2ccccc2)n(C2CC2)c2c(F)c(F)c(F)cc2c1=O (centres undefined)
218 to 219	O=C(O)c1ccc(CN(C2CCOCC2)S(=O)(=O)c2ccc(Cl)cc2)cc1
217	CCc1c(-c2ccc3cn[nH]c3c2)cc(Nc2ccc(N3CCN(CC)CC3)cn2)c2nccn12
186 to 187	O=C(O)C1Cc2cc(-c3ccccc3)ccc2O1 (centres undefined)
135 to 136	CN1CCc2cc(Cl)c(NC=O)cc2[C@@H](c2ccccc2)C1
200 to 203	Cc1c(CCc2ccc3nc(N)sc3c2)ncn1C(c1ccccc1)(c1ccccc1)c1ccccc1
133	COCc1nnc2ccc(-c3ccccc3)nn12
152 to 153	CS(=O)(=O)OCCOc1ccc(CN2C(=O)C(=O)c3cc(S(=O)(=O)N4CCCC4COc4ccccc4)ccc32)cc1 (centres undefined)
108 to 109	Cc1oc(-c2ccccc2)nc1COc1ccc(CCl)cc1
218 to 219	N#Cc1c(-c2cccc(C(=O)NCCO)c2)cc(-c2ccccc2O)nc1NC(=O)c1cccs1
252 to 254	N#Cc1cc(-c2ccccc2Cl)c[nH]c1=O
272 to 274	COc1cc(C(C)C)ccc1C1(NC(N)=O)C(=O)c2ccccc2C1=O

melting point [°C]	SMILES
146 to 147	CC(C)CCS(=O)(=O)c1cccc(-c2nc(=O)c3ccccc3s2)n1
88 to 90	FC(F)(F)Oc1ccc2nc(Cc3ccc4c(c3)CCCC4)[nH]c2c1
94 to 96	CC(C)OC(=O)c1cc(Cl)c(Cl)c(-c2ccccc2)n1
168 to 170	Cc1ccc(C(=O)Nc2ccc(CN3CCCC3)c(C(F)(F)F)c2)cc1-c1ccc2cnncc2c1
81 to 84	CC(COc1cccc(Oc2ccccc2)c1)OS(N)(=O)=O (centres undefined)
190 to 192	Cc1nc(-n2cnn(Cc3ccc(F)cc3)c2=O)sc1C#N
195 to 196	Cc1ccnc(-n2sc3ccccc3c2=O)c1
137 to 139	CCC1(CO)C=NC(c2nn(Cc3ccccc3F)c3ccccc23)O1 (centres undefined)
184 to 186	Cc1ccc(C=NC2=NN(c3ccc4ccccc4c3)CC2)cc1
151 to 152	CCCc1cc(C(O)=S)cc(N)c1Cc1ccccc1
170 to 171	O=C(O)C1CCc2c(c3ccccc3n2C(=O)c2cccc(F)c2)C1 (centres undefined)
78 to 79	COc1ccc2cc3c(Cl)nn(CC(C)N(C)C)c3nc2c1 (centres undefined)
211 to 213	CCOC(=O)c1nn(-c2ccc(N(C)C)cc2)c(=O)c2c(N)scc12
209 to 210	Cc1c(CC(C)C(=O)c2cn(C)c3ccccc23)ncn1C(c1ccccc1)(c1ccccc1)c1ccccc1 (centres undefined)
125	Clc1ccc2c(c1)CN1C(=Nc3cccnc3)SC[C@@H]1C2
